# Patent publication US20110269828A1, “COMPOSITIONS AND METHODS FOR TREATING AND PREVENTING WEIGHT-RELATED DISORDERS IN COMPANION ANIMALS” (Hill's Pet Nutrition, Inc., priority 2008, published 2011)
# Assays:
# GSH:GSSG ratio = assay: Change in GSH:GSSG ratio in blood cells of dogs consuming DL-alpha lipoic acid in an extruded food; type: in vivo, dog
# Text: (§1) 30 adult, random source, dogs were utilized for this study. Dogs were at least 10 months of age, not pregnant, not lactating and of reasonable body weight prior to start of test. Animals were randomized into 5 groups for dietary treatment with 3 males and 3 females per each group.
# All dogs were fed a control food (0 ppm dl-alpha-lipoic acid added) that met or exceeded all recommendations for nutrients as proposed by the American Association of Feed Control Officials (AAFCO 2000) during a 2 week prefeeding period (Table 2). Following the prefeeding period dogs were randomized into 5 treatment groups with one of the following dl-alpha lipoic acid target-inclusions (dry matter basis): 0 ppm, 150 ppm, 1500 ppm, 3000 ppm, 4500 ppm. In all diets, control and alpha lipoic acid, Vitamin E was added and was present at a level of 600-1000 International Units and Vitamin C was added at levels of 100-200 ppm.
# Blood was collected aseptically for complete blood count, and blood biochemistry analysis 2 weeks prior to start and again at […], 56, 84, 112, 140 and 168 days of the study. In addition, 15 ml of whole blood was collected for isolation of lymphocytes at day 0, 28 and 84 of the dietary intervention.
# Heparinized whole blood was layered onto a 50 ml Accuspin conical centrifuge tube (Sigma Chemical) and an equal volume of Phosphate buffered saline (PBS) was added. Samples were centrifuged at 700 g for 30 minutes without brake. The monocyte layer was harvested, transferred to a 15 ml conical centrifuge tube, resuspended in 1-3 ml of PB, and centrifuged as before (First wash). A second wash was performed as the first wash. Finally, cells were harvested and suspended in perchloric acid (10% w/v) and frozen at −70° C., until analysis.
# Samples were transferred from −70° C. freezer into a cooler with dry ice in it. Vials were centrifuged at 12,000 rpm for 5 minutes in a refrigerated centrifuge. An aliquot of supernatant for glutathione (GSH) analysis was transferred to a conical test tube.
# Derivatization of the acid soluble extracts was by the method of Reed and coworkers (Fariss et al) as modified by Jones (Jones et al)
# Briefly, 150 μL extract or external standards were added into a 1.5 ml Eppendorf tube followed by addition of 20μγ-Glu-Glu internal standard and 50 μL IAA added followed by mixing. The solution was adjusted to pH about 10 (purple color) by using KOH—KHCO3 working solution. Solutions were incubated 1 hr, under room temperature in the dark. Sanger's reagent was added at the same volume as of the total volume and the solution was incubated overnight (20 hrs) in the dark at room temperature.
# After incubation, the solution was centrifuged at 12000 rpm for 5 minutes with the supernatant transferred into another 1.5 ml eppendorf tube.
# Solvents and separation conditions were as described (Fariss, Jones). Levels of GSH and GSSG were quantified relative to authentic standards. Gamma-glutamyl-glutamate was used as an internal standard to assess derivatization efficiency.
# Comparison of values for clinical chemistry, hematology and body weights vs baseline were analyzed by way of paired t-test on SAS for windows with significance set at P<0.05. Means of values at each measured time point were separated by a one-way ANOVA with significance set at P<0.05. The difference in GSH:GSSG between day 84 and baseline were analyzed between groups by way of SAS for windows in a one-way ANOVA with significance set at P<0.05.
# dogs [1] = assay: 6 month feeding study of dl-alpha-lipoic acid in dogs: body weight, physical examination, safety; type: in vivo
# Text: as §1
# All dogs were fed a control food (0 ppm dl-alpha-lipoic acid added) that met or exceeded all recommendations for nutrients as proposed by the American Association of Feed Control Officials (AAFCO 2000) during a 2 week prefeeding period (Table 2). […]
# Test foods were the sole source of nutrients except for water. […] After dogs were selected and initial body weights taken, a food dose was calculated for each dog based on the expected ME of the food. Initial food dose calculations were based on the maintenance energy requirement (MER) for the dog modified by a factor to account for normal activity as calculated by the following formula: […]
# Dogs were weighed weekly and had food doses adjusted as needed in order to feed enough food to maintain their optimal body weight. Optimal body weight was determined to be 3 on a 5 point scale. […] All measures of body weight and food intake were recorded. […]
# Comparison of values for clinical chemistry, hematology and body weights vs baseline were analyzed by way of paired t-test on SAS for windows with significance set at P<0.05. […]
# dogs [2] = assay: Body composition (DEXA) of dogs over 90 days; type: in vivo, dog
# Text: 30 dogs were used to determine the effect of lipoic acid when compared to an AAFCO control food or a test food containing fish oil.
# Table 9 illustrates Dual Energy X-Ray Absorptiometry (DEXA) measurement for dogs after being fed a control diet compared with dogs fed a pet food including lipoic acid for 90 days. The measurement of body fat using DEXA is more accurate than body weight for assessing health. A dog can have a lot of muscle, but be considered “over-weight” by many height/weight charts. The opposite can also be true—a dog can have a lot of fat and little muscle and be “over-fat” but not overweight.
# plasma metabolites = assay: Metabolomics: fold change in metabolites measured in the blood at day 30; type: in vivo, dog
# Description: Metabolomics: Plasma metabolites were analyzed and were compared as fold change relative to the control fed dogs.
# [3] = tested on: genes related to cartilage and energy metabolism; assay: Differential gene expression profile in whole blood (canine 2 Affymetrix genechips); type: in vivo, dog
# Text: A differential gene expression profile was studied between an AAFCO control food, a food containing fish oil, and a food containing lipoic acid. At a minimum of 1.3 fold change, a list of 1212 genes was generated compared to the AAFCO control and 1896 genes compared to the food containing fish oil at d 30.
# RNA extraction: Total RNAs were isolated from whole blood samples using the PAXgene RNA isolation kit. All measurements were done with the canine 2 Affymetrix genechips. For statistical analysis, all measurements were normalized with RMA. All analysis was preformed using Partek. An ANOVA t-test was performed for genes that are differentially expressed between the control and test foods were selected based on p-value cutoff 0.1, fold change >+/−1.3.
# dogs [4] = assay: Percentage of animals classifying genomically fat; type: in vivo, dog
# Text: Table 6 illustrates the percentage of dogs classified as genomically fat after being fed a control diet compared with dogs fed a control plus fish oil and a control plus lipoic acid for 30 days.
# [5] = tested on: type II collagen C-propeptide and carboxy-terminal crosslinked telopeptide fragment of type II collagen; assay: Serum cartilage markers by ELISA; type: in vivo, dog; details: vs a similar food without lipoic acid, day 0 as covariate
# Description: Biomarker measurements: Serum cartilage markers were measured using ELISA based kits to determine concentrations of cartilage markers. Day 0 was used as a covariate in the analysis to adjust for baseline values.
# [6] = body composition over 90 days, dogs
# [7] = dogs fed a food containing lipoic acid
# [8] = day 30, day 0 values as covariate
# [9] = lipoic acid vs. control, cartilage metabolism
# [10] = lipoic acid vs. control, energy metabolism
# [11] = lipoic acid vs. fish oil, cartilage metabolism
# [12] = lipoic acid vs. fish oil, energy metabolism
compound,measurement,setting,value
"O=C(O)CCCCC1CCSS1 (racemic) [Lipoic Acid, dl-alpha-lipoic acid]",Difference in GSH:GSSG ratio- day 0 to day 84 compared to baseline food,"GSH:GSSG ratio; 150 ppm inclusion in extruded food, mean +/- spread",70 +/− 20
same,Difference in GSH:GSSG ratio- day 0 to day 84 compared to baseline food,"GSH:GSSG ratio; 1,500 ppm inclusion in extruded food",24 +/− 7
same,Difference in GSH:GSSG ratio- day 0 to day 84 compared to baseline food,"GSH:GSSG ratio; 3,000 ppm inclusion in extruded food",10 +/− 4
same,Difference in GSH:GSSG ratio- day 0 to day 84 compared to baseline food,"GSH:GSSG ratio; 4,500 ppm inclusion in extruded food",50 +/− 36
same,Effect on GSH to GSSG ratio,GSH:GSSG ratio; chronic feeding in diet,improves the reduced glutathione (GSH) to oxidized glutathione (GSSG) ratio
same,Body weight,"dogs [1]; 4500 ppm inclusion group, change appeared to reverse by 6 months",some weight loss occurred initially
same,Chronic feeding in diet: safety,"dogs [1]; dog, in vivo",safe and effective
same,Change in weight,"dogs [2]; 90 day treatment period, vs control and control plus fish oil",greatest change in weight
same,Total Weight,dogs [2]; [6],"13,800 g"
same,Total fat,dogs [2]; [6],2788.3 g
same,Body fat,dogs [2]; [7],lost fat
same,Change in fat,"dogs [2]; over 90 days, dogs",-587.2 g
same,Change in weight,"dogs [2]; over 90 days, dogs",-637.5 g
same,Change in pyruvate blood levels,"plasma metabolites; 30 day treatment period, vs control and control plus fish oil",greatest change in pyruvate blood levels
same,Kidney markers in blood,"plasma metabolites; after 30 days, control plus lipoic acid",decreased kidney markers
same,"Fold change in pyruvate measured in the blood, Lipoic acid vs Control",plasma metabolites; [8],0.5379
same,"Fold change in pyruvate measured in the blood, Lipoic acid vs Fish oil",plasma metabolites; [8],0.6274
same,Plasma hydroxyproline,plasma metabolites; [7],reduced in plasma
same,Fold change 12-lipooxygenase,[3]; [9],−1.3
same,Fold change Chondroitan sulfate synthase 1,[3]; [9],1.4
same,Fold change Facilitated glucose transporter 9,[3]; [9],1.4
same,Fold change Prolyl hydroxylase alpha 1,[3]; [9],1.4
same,Fold change Prolyl hydroxylase alpha 2,[3]; [9],1.3
same,Fold change TIMP1,[3]; [9],1.3
same,Fold change chondroitan sulfate proteoglycan 2 (veriscan),[3]; [9],1.5
same,Fold change heparan sulfate N-deacetylase/N-sulfotransferase 2,[3]; [9],1.3
same,Fold change 5′ AMP alpha 1,[3]; [10],1.3
same,Fold change 5′ AMP beta 1,[3]; [10],1.3
same,Fold change 5′ AMP gamma 2,[3]; [10],1.4
same,Fold change Facilitated glucose transporter 1,[3]; [10],1.3
same,Fold change Facilitated glucose transporter 6,[3]; [10],1 .3
same,Fold change Fatty acid desaturase 1,[3]; [10],1.9
same,Fold change Hexokinase 3,[3]; [10],1.3
same,Fold change PDK4,[3]; [10],1.4
same,Fold change PPAR gamma,[3]; [10],1.3
same,Fold change Succinyl CoA ligase alpha,[3]; [10],1.3
same,Fold change 12-lipooxygenase,[3]; [11],−1.3
same,Fold change ADAMTS-2,[3]; [11],−1.3
same,Fold change ADAMTS-10,[3]; [11],−1.3
same,Fold change ADAMTS-16,[3]; [11],−1.3
same,Fold change Chondroitan sulfate synthase 1,[3]; [11],1.3
same,Fold change Facilitated glucose transporter 9,[3]; [11],1.4
same,Fold change Fibronectin 1,[3]; [11],1.4
same,Fold change Lysyl hydroxylase,[3]; [11],1.3
same,Fold change MMP2,[3]; [11],−1.3
same,Fold change MMP7,[3]; [11],−1.3
same,Fold change N-acetylgalactosaminyltransferase 1,[3]; [11],1.3
same,Fold change Transforming growth factor beta receptor 1,[3]; [11],1.3
same,Fold change chondroitan sulfate proteoglycan 2 (veriscan),[3]; [11],1.5
same,Fold change 5′ AMP alpha 1,[3]; [12],1.3
same,Fold change 5′ AMP beta 1,[3]; [12],1.3
same,Fold change 5′ AMP gamma 2,[3]; [12],1.5
same,Fold change Facilitated glucose transporter 1,[3]; [12],1.3
same,Fold change Facilitated glucose transporter 6,[3]; [12],1.4
same,Fold change Hexokinase 3,[3]; [12],1.3
same,Fold change PDK4,[3]; [12],1.6
same,Fold change PPAR gamma,[3]; [12],1.3
same,Fold change SREBP-1,[3]; [12],−1.3
same,Fold change Succinyl CoA ligase alpha,[3]; [12],1.3
same,Fold change Succinyl CoA ligase beta,[3]; [12],1.3
same,Fold change cAMP responsice element modulator,[3]; [12],1.3
same,Genomic resemblance to physically fat dogs,"dogs [4]; after a 30 day treatment period, control plus lipoic acid",genomically did not resemble physically fat dogs
same,Percentage of animals at d 30 that classified fat using genomic markers,"dogs [4]; d 30, dogs",0%
same,Change in carboxy-terminal crosslinked telopeptide fragment of type II collagen,[5],greater decrease
same,Change in type II collagen C-propeptide,[5],greater decrease
